Laboratory results taken from patent publication US4372948A, “Derivative of saccharide and physiologically active agent containing the same” (Kureha Kagaku Kogyo Kabushiki Kaisha, priority 1980, dated 1983).

Key:
beta-lipoprotein = experiment: Anti-hyperlipemia activity, beta-lipoprotein in blood; type: in vivo, rabbit (Japanese white male); conditions: oral, 300 mg/kg once
In short: (§1)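 Male Japanese white rabbits fed 1% cholesterol diet for 3 months received compound once orally at 300 mg/kg in water. Ear-vein blood: cholesterol by enzymatic method, beta-lipoprotein by colorimetry; values are change from predose at 3 or 6 h.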

[1] = system: pseudo-escaping reaction to tail pressure; experiment: Analgetic activity against mechanical stimulation of pressure; type: in vivo, mouse (ICR female); conditions: oral, 1000 mg/kg
carrageenin edema = experiment: Anti-Carrageenin edema activity; type: in vivo, rat; conditions: 1000 mg/kg once; for inhibition in vivo at 1000 mg/kg: Rattus norvegicus, po, read-out: I.R. against carrageenin edema; for I.R. against carrageenin edema: oral, 1000 mg/kg
In short: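 Rats (10 per group) given compound orally once at 1000 mg/kg in distilled water, then 0.1 ml 1% carrageenin injected into right hind foot pad. Foot pad thickness measured at intervals; inhibition rate (%) = (1−T/C)×100 versus carrageenin-only animals.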

Sarcoma-180 = experiment: Anti-tumour activity against Sarcoma-180; type: in vivo, mouse (ICR-JCL); conditions: 10 times every other day, tumour weight on 25th day; for inhibition in vivo at 500 mg/kg: Mus musculus, Sarcoma-180, po, 600 h, read-out: Antitumour activity, inhibiting rate (I.R.); for Antitumour activity, inhibiting rate (I.R.): oral, 500 mg/kg/time, 500 mg/kg
In short: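 ICR-JCL mice were given 1×10^6 Sarcoma-180 cells axillary; from 24 hours, compounds in saline were dosed orally at 500 mg/kg/time, 10 times every other day. Tumour nodes were weighed on day 25; inhibition rate = (1-T/C)×100(%) versus untreated tumour-bearing mice.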

cotton pellet granuloma = experiment: Anti-granuloma activity (cotton pellet); type: in vivo, rat; conditions: 7 days; for inhibition in vivo at 1000 mg/kg/day: Rattus norvegicus, po, 192 h, read-out: I.R. against cotton pellet edema; for I.R. against cotton pellet edema: oral, 1000 mg/kg/day
In short: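 Rats (6/group) implanted dorsally with two 30±1 mg cotton pellets; compounds given orally in distilled water at 1000 mg/kg/day once daily for 7 days. Granuloma excised on day 8 and dry weight measured; value is % inhibition of granuloma proliferation.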

in vivo = conditions: mouse, in vivo, po, mice, 7 days observation, read-out: LD50, acute oral toxicity
exudation = experiment: Anti-exudation activity (air pouch, croton oil); type: in vivo, rat; conditions: 5 days; for inhibition in vivo at 1000 mg/kg/day: Rattus norvegicus, po, 144 h, read-out: I.R. against exudation; for I.R. against exudation: oral, 1000 mg/kg/day
In short: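 Rats, 6 per group, given subcutaneous dorsal air pouch injected with 0.5 ml sesame oil containing 1% croton oil. Compounds dosed orally in distilled water at 1000 mg/kg/day for five days; pouch exudate volume measured on day 6 and expressed as percent inhibition of exudation.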

[2] = system: pyrexia (Saccharomyces cerevisiae); experiment: Anti-pyrexia activity (yeast-induced); type: in vivo; conditions: Rattus norvegicus, oral, read-out: Rate of inhibiting pyrexia (I.R.)
In short: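 Rats (n=6/group) received subcutaneous 20% Saccharomyces cerevisiae suspension, fasted 10 h, then dosed orally with 1000 mg/kg compound in distilled water. Rectal temperature was tracked at set intervals and the lowest value taken; inhibition rate computed against non-yeast and yeast-only control temperatures.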

blood pressure = experiment: Anti-hypertension activity (reduction of blood pressure); type: in vivo, rat (spontaneous hypertension); conditions: oral, 300 mg/kg
In short: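 Spontaneously hypertensive rats dosed orally at 300 mg/kg in distilled water. Blood pressure measured at 3 and 6 h. Activity taken as change from the value just before dosing.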

total cholesterol = experiment: Anti-hyperlipemia activity, total cholesterol in blood; type: in vivo, rabbit (Japanese white male); conditions: oral, 300 mg/kg once; for Reduction of cholesterol level after 3 hrs.: negative = raising
In short: as §1

acetic acid writhing = experiment: Analgetic activity against chemical stimulation of acetic acid (writhing); type: in vivo, mouse (ICR female); conditions: 30 min before 0.6% acetic acid; for inhibition in vivo at 1000 mg/kg: Mus musculus, po, read-out: I.R. of writhing; for I.R. of writhing: oral, 1000 mg/kg
Source text: Rate of inhibition (I.R.) (%)=(1-T/C)×100
T represents the average number of writhing of the group of mice administered with the present compound and injected with acetic acid, and C represents the average number of writhing of the group of mice only injected with acetic acid (control).

level of blood sugar = experiment: Anti-hyperglycemia activity (reduction of blood sugar level); type: in vivo, rat (Wistar, streptozotocin); conditions: oral, 300 mg/kg
In short: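 Streptozotocin-diabetic Wistar rats (60 mg/kg i.p., relapsed hyperglycemia after insulin) given compounds orally at 300 mg/kg in distilled water. Blood sugar measured in samples taken 3 and 6 h post-dose.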

ICR-JCL mice = experiment: in vivo; conditions: 7 days observation, 10080 min
[3] = system: Bacillus subtilis strain H17; experiment: Mutagenicity, Rec-Assay, recombination repair retaining strain; conditions: 10 microgram/disk
Experimental: (§2) Then, a solution or suspension of each of the present compounds was absorbed on a round sheet of paper (disk) of 8 mm in diameter in an amount of 0.04 ml and the disk was placed on the culture plate so as to cover the starting points of the streaks of the micro-organism's culture.

[4] = system: Bacillus subtilis strain M45; experiment: Mutagenicity, Rec-Assay, recombination repair deficient strain; conditions: 10 microgram/disk
Experimental: as §2

[5] = system: foot pad reaction to sheep erythrocyte; experiment: Delayed-type intracutaneous reaction (foot pad reaction, cellular immunity); type: in vivo, mouse (ICR-JCL); conditions: same dose (250 mg/kg/day) intraperitoneally
Experimental: In order to know the influence of the present compounds on the cellular immunity, a foot pad reaction test was carried out by using ICR-JCL mice as experimental animals and sheep erythrocyte as an antigen as follows:
Sheep erythrocytes were suspended in a physiological saline solution at a concentration of 10% by volume and 0.2 ml of the suspension was injected into the caudal vein of each mouse for the primary sensitization, and after 7 days, a 40% by volume suspension of the erythrocytes in physiological saline solution was injected into the foot pad of the mouse for the challenge. The thickness of the injected foot pad was measured on the next day. One of the present compounds was administered intraperitoneally at dose of 250 mg/kg/day once a day for continued 5 days around the day of the first sensitization as a center.

## O=C(OCC1CCCCC1)c1ccc(NC2OC[C@@H](O)[C@@H](O)[C@H]2O)cc1 (stereo partly drawn) [Compound 23, hexahydrobenzyl p-aminobenzoate-N-D-riboside]
beta-lipoprotein
  Reduction of beta-lipoprotein level after 3 hrs.: 141 mg/dL
  Reduction of beta-lipoprotein level after 6 hrs.: 143 mg/dL
[1]
  Pseudo-escapting reaction pressure: 80 mmHg
  Pseudo-escapting reaction time: 39 s
Carrageenin edema
  inhibition in vivo at 1000 mg/kg: 4.9%
Sarcoma-180
  inhibition in vivo at 500 mg/kg: 47%
Cotton pellet granuloma
  inhibition in vivo at 1000 mg/kg/day: 7.3%
In vivo
  LD50 at 168 h: 12600 mg/kg
exudation
  inhibition in vivo at 1000 mg/kg/day: 22.5%
[2]
  inhibition in vivo at 1000 mg/kg: 15%
Blood pressure
  Reduced level of blood pressure after 3 hrs.: 21 mm Hg
  Reduced level of blood pressure after 6 hrs.: 22 mm Hg
Total cholesterol
  Reduction of cholesterol level after 3 hrs.: -1 mg/dL
  Reduction of cholesterol level after 6 hrs.: 40 mg/dL
Acetic acid writhing
  inhibition in vivo at 1000 mg/kg: 23%
Level of blood sugar
  Reduced level of blood sugar after 3 hrs.: 120 mg/dL
  Reduced level of blood sugar after 6 hrs.: 126 mg/dL

## O=C(OCC1CCCCC1)c1ccc(NC2O[C@H](CO)[C@@H](O)[C@H](O)[C@H]2O)cc1 (stereo partly drawn) [Compound 24, hexahydrobenzyl p-aminobenzoate-N-D-glucoside]
beta-lipoprotein
  Reduction of beta-lipoprotein level after 3 hrs.: 95 mg/dL
  Reduction of beta-lipoprotein level after 6 hrs.: 111 mg/dL
[1]
  Pseudo-escapting reaction pressure: 85 mmHg
  Pseudo-escapting reaction time: 42 s
Carrageenin edema
  inhibition in vivo at 1000 mg/kg: 10.6%
Sarcoma-180
  inhibition in vivo at 500 mg/kg: 40%
Cotton pellet granuloma
  inhibition in vivo at 1000 mg/kg/day: 16.9%
In vivo
  LD50 at 168 h: 12100 mg/kg
exudation
  inhibition in vivo at 1000 mg/kg/day: 8.7%
[2]
  inhibition in vivo at 1000 mg/kg: 48%
Blood pressure
  Reduced level of blood pressure after 3 hrs.: 19 mm Hg
  Reduced level of blood pressure after 6 hrs.: 21 mm Hg
Total cholesterol
  Reduction of cholesterol level after 3 hrs.: 2 mg/dL
  Reduction of cholesterol level after 6 hrs.: 32 mg/dL
Acetic acid writhing
  inhibition in vivo at 1000 mg/kg: 41%
Level of blood sugar
  Reduced level of blood sugar after 3 hrs.: 101 mg/dL
  Reduced level of blood sugar after 6 hrs.: 145 mg/dL

## C[C@@H]1OC(Nc2ccc(C(=O)OCC3CCCCC3)cc2)[C@H](O)[C@H](O)[C@H]1O (stereo partly drawn) [Compound 25, hexahydrobenzyl p-aminobenzoate-N-L-rhamnoside]
beta-lipoprotein
  Reduction of beta-lipoprotein level after 3 hrs.: 95 mg/dL
  Reduction of beta-lipoprotein level after 6 hrs.: 106 mg/dL
[1]
  Pseudo-escapting reaction pressure: 93 mmHg
  Pseudo-escapting reaction time: 44 s
Carrageenin edema
  inhibition in vivo at 1000 mg/kg: 18.1%
Sarcoma-180
  inhibition in vivo at 500 mg/kg: 50%
Cotton pellet granuloma
  inhibition in vivo at 1000 mg/kg/day: 6.5%
In vivo
  LD50 at 168 h: 9400 mg/kg
exudation
  inhibition in vivo at 1000 mg/kg/day: 22.3%
[2]
  inhibition in vivo at 1000 mg/kg: 54%
Blood pressure
  Reduced level of blood pressure after 3 hrs.: 16 mm Hg
  Reduced level of blood pressure after 6 hrs.: 18 mm Hg
Total cholesterol
  Reduction of cholesterol level after 3 hrs.: -3 mg/dL
  Reduction of cholesterol level after 6 hrs.: 44 mg/dL
Acetic acid writhing
  inhibition in vivo at 1000 mg/kg: 50%
Level of blood sugar
  Reduced level of blood sugar after 3 hrs.: 88 mg/dL
  Reduced level of blood sugar after 6 hrs.: 127 mg/dL

## COC(=O)Cc1ccc(NC2O[C@@H](C)[C@H](O)[C@@H](O)[C@H]2O)cc1 (stereo partly drawn) [Compound 26, methyl p-aminophenylacetate-N-L-rhamnoside]
beta-lipoprotein
  Reduction of beta-lipoprotein level after 3 hrs.: 123 mg/dL
  Reduction of beta-lipoprotein level after 6 hrs.: 133 mg/dL
[1]
  Pseudo-escapting reaction pressure: 92 mmHg
  Pseudo-escapting reaction time: 41 s
Carrageenin edema
  inhibition in vivo at 1000 mg/kg: 5.3%
Sarcoma-180
  inhibition in vivo at 500 mg/kg: 45%
Cotton pellet granuloma
  inhibition in vivo at 1000 mg/kg/day: 24.1%
In vivo
  LD50 at 168 h: 11200 mg/kg
exudation
  inhibition in vivo at 1000 mg/kg/day: 17.7%
[2]
  inhibition in vivo at 1000 mg/kg: 60%
Blood pressure
  Reduced level of blood pressure after 3 hrs.: 20 mm Hg
  Reduced level of blood pressure after 6 hrs.: 23 mm Hg
Total cholesterol
  Reduction of cholesterol level after 3 hrs.: -3 mg/dL
  Reduction of cholesterol level after 6 hrs.: 51 mg/dL
Acetic acid writhing
  inhibition in vivo at 1000 mg/kg: 34%
Level of blood sugar
  Reduced level of blood sugar after 3 hrs.: 90 mg/dL
  Reduced level of blood sugar after 6 hrs.: 136 mg/dL

## C[C@@H]1OC(Nc2ccc(CC(=O)O)cc2)[C@H](O)[C@H](O)[C@H]1O (stereo partly drawn) [Compound 28, sodium p-aminophenylacetate-N-L-rhamnoside]
beta-lipoprotein; 300 mg/kg
  Reduction of beta-lipoprotein level after 3 hrs.: 101 mg/dL
  Reduction of beta-lipoprotein level after 6 hrs.: 100 mg/dL
[1]
  Pseudo-escapting reaction pressure: 87 mmHg
  Pseudo-escapting reaction time: 38 s
Carrageenin edema
  I.R. against carrageenin edema: 8.3%
Sarcoma-180
  Antitumour activity, inhibiting rate (I.R.): 45%
Cotton pellet granuloma
  I.R. against cotton pellet edema: 20.6%
ICR-JCL mice
  LD50, acute oral toxicity: 11100 mg/kg
exudation
  I.R. against exudation: 6.1%
Blood pressure
  Reduced level of blood pressure after 3 hrs.: 25 mm Hg
  Reduced level of blood pressure after 6 hrs.: 19 mm Hg
Total cholesterol; 300 mg/kg
  Reduction of cholesterol level after 3 hrs.: 5 mg/dL
  Reduction of cholesterol level after 6 hrs.: 25 mg/dL
Acetic acid writhing
  I.R. of writhing: 25%
Level of blood sugar
  Reduced level of blood sugar after 3 hrs.: 92 mg/dL
  Reduced level of blood sugar after 6 hrs.: 77 mg/dL

## C[C@@H]1OC(Nc2ccc(CC(=O)O)cc2)[C@H](O)[C@H](O)[C@H]1O (stereo partly drawn) [Compound 29, potassium p-aminophenylacetate-N-L-rhamnoside]
beta-lipoprotein; 300 mg/kg
  Reduction of beta-lipoprotein level after 3 hrs.: 95 mg/dL
  Reduction of beta-lipoprotein level after 6 hrs.: 121 mg/dL
[1]
  Pseudo-escapting reaction pressure: 84 mmHg
  Pseudo-escapting reaction time: 41 s
Carrageenin edema
  I.R. against carrageenin edema: 9.3%
Sarcoma-180
  Antitumour activity, inhibiting rate (I.R.): 38%
Cotton pellet granuloma
  I.R. against cotton pellet edema: 15.9%
ICR-JCL mice
  LD50, acute oral toxicity: 10000 mg/kg
exudation
  I.R. against exudation: 5.8%
Blood pressure
  Reduced level of blood pressure after 3 hrs.: 21 mm Hg
  Reduced level of blood pressure after 6 hrs.: 17 mm Hg
Total cholesterol; 300 mg/kg
  Reduction of cholesterol level after 3 hrs.: 3 mg/dL
  Reduction of cholesterol level after 6 hrs.: 40 mg/dL
Acetic acid writhing
  I.R. of writhing: 26%
Level of blood sugar
  Reduced level of blood sugar after 3 hrs.: 88 mg/dL
  Reduced level of blood sugar after 6 hrs.: 71 mg/dL

## NC[C@H]1O[C@H](O[C@H]2[C@H](O)[C@@H](O[C@H]3O[C@H](CO)[C@@H](O)[C@H](N)[C@H]3O)[C@H](N)C[C@@H]2N)[C@H](O)[C@@H](O)[C@@H]1O [Kanamycin]
[3]
  Length of growth inhibition H17: 3 mm
[4]
  Length of growth inhibition M45: 6 mm
[4]; M45 minus H17
  Difference of growth inhibition (M45, H17): 3 mm

## CO[C@@]12[C@H](COC(N)=O)C3=C(C(=O)C(C)=C(N)C3=O)N1C[C@@H]1N[C@@H]12 [Mitomycin C, mitomycin C]
[5]
  mortality in foot pad reaction test: died
